Assay [1] has as its target T1, HIV-1 RT double mutant K103N/Y181C (Human immunodeficiency virus type 1 group M subtype B, UniProt P03366, K702N/Y780C).
T1 construct: HIV-1 wild type reverse transcriptase as well as the clinically significant double mutant K103N/Y181C
Description: biochemical. On the procedure:
(§1) Utilizing the Reverse Transcriptase (RT) Assay described below, compounds were tested for their ability to inhibit the RNA-dependent DNA polymerase activity of HIV-1 RT. Certain specific compounds described in the Examples and in Tables 1-4, were so tested. The results of this testing appear in Table 5 as ranges of IC50 (nM) and EC50 (nM).
(§2) Reverse Transcriptase (RT) Assays

Assay [2] concerns the target T2, HIV-1 wild type reverse transcriptase (Human immunodeficiency virus type 1 group M subtype B, UniProt P03366).
T2 construct: HIV-1 wild type reverse transcriptase
Description: biochemical. To be noted: read-out: IC50 WT RT. On the procedure: as §1, §2

Where [3] appears, read: RT double mutant K103N/Y181C, read-out: IC50 K103N/Y181C.

In patent US6806265B2, “Non-nucleoside reverse transcriptase inhibitors” (priority 2002, dated 2004) one finds IC50 data, which are given here for 48 compounds.

pIC50: −log10 of the molar value. Where two headings read alike, the source gives them in different places.

For the compound `CCN1c2ncc(CCOc3ccc(-c4cc(C(=O)O)ccc4F)cc3C)cc2C(=O)N(C)c2cccnc21` [Entry 1029], the pIC50 was 7.00 to 7.30 in assay [1] (setting [3]) and over 7.30 in assay [2] (wild type RT).
With `CCN1c2ncc(CCOc3ccc(-c4ccc(C)[n+]([O-])c4C)cc3C)cc2C(=O)N(C)c2cccnc21` [Entry 1078], the pIC50 in assay [1] (setting [3]) and in assay [2] (wild type RT) was over 7.30 in each case.
`CCN1c2ncc(CCOc3ccc(-c4ccc(N)nc4)cc3C)cc2C(=O)N(C)c2cccnc21` [Entry 1079]: the pIC50 in assay [1] (setting [3]) and in assay [2] (wild type RT) was over 7.30 each time.
`CCN1c2ncc(CCOc3ccc(-c4ccc(CC(=O)O)cc4[N+](=O)[O-])cc3C)cc2C(=O)N(C)c2cccnc21` [Entry 1027]: the pIC50 in assay [1] (setting [3]) is 7.00 to 7.30; in assay [2] (wild type RT), over 7.30.
For the compound `CCN1c2ncc(CCOc3ccc(-c4cnccc4C)cc3C)cc2C(=O)N(C)c2cccnc21` [Entry 1076, 11-Ethyl-5,11-dihydro-5-methyl-8-{2-[2-methyl-4-(4-methyl-3-pyridinyl)phenoxy]ethyl}-6H-dipyrido[3,2-b:2′,3′-e][1,4]diazepin-6-one], the pIC50 in assay [1] and in assay [2] (wild type RT) was over 7.30 in each case.
`CCN1c2ncc(CCOc3ccc(-c4ccc(CC(=O)O)cc4C)cc3C)cc2C(=O)N(C)c2cccnc21` [Entry 1023]: in assay [1] (setting [3]), the pIC50 is 7.00 to 7.30.
`CCN1c2ncc(CCOc3ccc(-c4cc(C)nc(C)c4)cc3C)cc2C(=O)N(C)c2cccnc21` [Entry 1087]: the pIC50 in assay [1] (setting [3]) and in assay [2] (wild type RT) was over 7.30 each time.
For `CCN1c2ncc(CCOc3cccc(-c4cccc(C(=O)O)c4)c3)cc2C(=O)N(C)c2cccnc21` [Entry 2002], the pIC50 in assay [2] (wild type RT) is under 7.00.
As to `CCN1c2ncc(CCOc3ccc(C(=O)N(C)Cc4ccc(C(=O)O)cc4)cc3C)cc2C(=O)N(C)c2cccnc21` [Entry 3006], the pIC50 is 7.00 to 7.30 in assay [1] and over 7.30 in assay [2] (wild type RT).
Regarding `CCN1c2ncc(CCOc3ccc(C(=O)NN)cc3C)cc2C(=O)Nc2c(C)ccnc21` [Entry 4019], the pIC50 in assay [1] (setting [3]) was 7.00 to 7.30; in assay [2] (wild type RT), over 7.30.
`CCN1c2ncc(CCOc3ccc(N(C)c4ccc(C(=O)O)cc4)cc3C)cc2C(=O)N(C)c2cccnc21` [Entry 3023]: the pIC50 in assay [1] was 7.00 to 7.30; in assay [2] (wild type RT) it was over 7.30.
Consider `CCN1c2ncc(CCOc3ccc(NC(C)=O)cc3C)cc2C(=O)N(C)c2cccnc21` [Entry 4001], for which the pIC50 in assay [1] is 7.00 to 7.30; in assay [2] (wild type RT), over 7.30.
In the same order, the values of `CCN1c2ncc(CCOc3ccc(C(=O)NCc4ccc(C(=O)O)cc4)cc3C)cc2C(=O)N(C)c2cccnc21` [Entry 3002] are over 7.30 and over 7.30.
Take `CCN1c2ncc(CCOc3cccc(-c4ccccc4)c3)cc2C(=O)N(C)c2cccnc21` [Entry 2003]: the pIC50 in assay [1] was under 7.00; in assay [2] (wild type RT), over 7.30.
Take `CCN1c2ncc(CCOc3ccc(C(=O)Nc4cccc[n+]4[O-])cc3C)cc2C(=O)N(C)c2cccnc21` [Entry 3015]: the pIC50 in assay [1] and in assay [2] (wild type RT) was over 7.30 each time.
On to `CCN1c2ncc(CCOc3ccc(-c4cc(C(=O)O)on4)cc3)cc2C(=O)N(C)c2cccnc21` [Entry 1040], for which the pIC50 was under 7.00 in assay [1] (setting [3]) and over 7.30 in assay [2] (wild type RT).
On to `CCN1c2ncc(CCOc3ccc(-c4ccnc(C)c4)cc3C)cc2C(=O)N(C)c2cccnc21` [Entry 1085], for which the pIC50 in assay [1] (setting [3]) and in assay [2] (wild type RT) was over 7.30 throughout.
As to `CCN1c2ncc(CCOc3ccc(-c4ccc(F)c(CC(=O)O)c4)cc3C)cc2C(=O)N(C)c2cccnc21` [Entry 1057], the pIC50 in assay [1] (setting [3]) and in assay [2] (wild type RT) was over 7.30 each time.
For `CCN1c2ncc(CCOc3ccc(-c4cc[n+]([O-])cc4)cc3C)cc2C(=O)N(C)c2cccnc21` [Entry 1084], the pIC50 in assay [1] (setting [3]) and in assay [2] (wild type RT) was over 7.30 throughout.
With `CCN1c2ncc(CCOc3ccc(-c4cccc(C(C)C(=O)O)c4)cc3C)cc2C(=O)N(C)c2cccnc21` (centres unmarked) [Entry 1016], the pIC50 in assay [1] (setting [3]) is 7.00 to 7.30; in assay [2] (wild type RT) it was over 7.30.
Turning to `CCN1c2ncc(CCOc3ccc(-c4c[n+]([O-])ccc4C)cc3C)cc2C(=O)N(C)c2cccnc21` [Entry 1077, 11-Ethyl-5,11-dihydro-5-methyl-8-{2-[2-methyl-4-(4-methyl-1-oxido-3-pyridinyl)phenoxy]ethyl}-6H-dipyrido[3,2-b:2′,3′-e][1,4]diazepin-6-one], the pIC50 in assay [1] and in assay [2] (wild type RT) was over 7.30 each time.
As for `CCN1c2ncc(CCOc3ccc(N(Cc4ccc(C(=O)O)cc4)C(C)=O)cc3C)cc2C(=O)N(C)c2cccnc21` [Entry 4003], the pIC50 was under 7.00 in assay [1] and 7.00 to 7.30 in assay [2] (wild type RT).
Regarding `CCN1c2ncc(CCOc3ccc(-c4ccc(C)cc4)cc3C)cc2C(=O)N(C)c2cccnc21` [Entry 1105], the pIC50 in assay [1] (setting [3]) and in assay [2] (wild type RT) was over 7.30 each time.
On to `CCN1c2ncc(CCOc3ccc(-c4nc(C(=O)O)cs4)cc3)cc2C(=O)N(C)c2cccnc21` [Entry 1039], for which the pIC50 in assay [1] (setting [3]) was under 7.00; in assay [2] (wild type RT), over 7.30.
For `CCN1c2ncc(CCOc3cccc(-c4ccc(C(=O)O)cc4)c3)cc2C(=O)N(C)c2cccnc21` [Entry 2001, 3′-[2-(11-Ethyl-6,11-dihydro-5-methyl-6-oxo-5H-dipyrido[3,2-b:2′,3′-e][1,4]diazepin-8-yl)ethoxy]-[1,1′-biphenyl]-4-carboxylic acid], the pIC50 in assay [2] (wild type RT) was under 7.00.
In the case of `CCN1c2ncc(CCOc3ccc(-c4cc(C)cnc4N)cc3C)cc2C(=O)N(C)c2cccnc21` [Entry 1082], the pIC50 in assay [1] (setting [3]) and in assay [2] (wild type RT) was over 7.30 each time.
On to `CCN1c2ncc(CCOc3ccc(-c4cc(C)[n+]([O-])c(C)c4)cc3C)cc2C(=O)N(C)c2cccnc21` [Entry 1088], for which the pIC50 in assay [1] (setting [3]) and in assay [2] (wild type RT) was over 7.30 each time.
As for `CCN1c2ncc(CCOc3ccc(C(=O)Nc4ccc[n+]([O-])c4)cc3C)cc2C(=O)N(C)c2cccnc21` [Entry 3013], the pIC50 in assay [1] and in assay [2] (wild type RT) was over 7.30 each time.
Turning to `CCN1c2ncc(CCOc3ccc(-c4cc(C(=O)O)ccc4OC)cc3C)cc2C(=O)N(C)c2cccnc21` [Entry 1030], the pIC50 in assay [1] (setting [3]) is under 7.00; in assay [2] (wild type RT), over 7.30.
For the compound `CCN1c2ncc(CCOc3ccc(-c4ccc(CCC(=O)O)o4)cc3)cc2C(=O)N(C)c2cccnc21` [Entry 1048], the pIC50 is under 7.00 in assay [1] (setting [3]) and over 7.30 in assay [2].
As to `CCN1c2ncc(CCOc3ccc(-c4ccc(CC(=O)O)cc4Cl)cc3C)cc2C(=O)N(C)c2cccnc21` [Entry 1025], the pIC50 in assay [1] (setting [3]) and in assay [2] (wild type RT) was over 7.30 throughout.
For the compound `CCN1c2ncc(CCOc3ccc(-c4ccc(C(=O)O)c(C)c4)cc3C)cc2C(=O)N(C)c2cccnc21` [Entry 1017], the pIC50 in assay [1] (setting [3]) and in assay [2] (wild type RT) was over 7.30 in each case.
For the compound `CCN1c2ncc(CCOc3ccc(-c4cscn4)cc3)cc2C(=O)N(C)c2cccnc21` [Entry 1092], the figures for the pIC50 in assay [1] (setting [3]) and in assay [2] (wild type RT) were under 7.00 and over 7.30, respectively.
As for `CCN1c2ncc(CCOc3ccc(-c4cc(C)ccn4)cc3C)cc2C(=O)N(C)c2cccnc21` [Entry 1065], the pIC50 in assay [1] (setting [3]) and in assay [2] (wild type RT) was over 7.30 throughout.
Consider `CCN1c2ncc(CCOc3ccc(-c4ccc(C(=O)O)o4)cc3)cc2C(=O)N(C)c2cccnc21` [Entry 1045], for which the pIC50 was 7.00 to 7.30 in assay [1] (setting [3]) and over 7.30 in assay [2] (wild type RT).
Consider `CCN1c2ncc(CCOc3ccc(-c4ccc(C(=O)O)c(F)c4)cc3C)cc2C(=O)N(C)c2cccnc21` [Entry 1018], for which the pIC50 in assay [1] (setting [3]) and in assay [2] (wild type RT) was over 7.30 each time.
Consider `CCN1c2ncc(CCOc3ccc(-c4cccnc4C)cc3C)cc2C(=O)N(C)c2cccnc21` [Entry 1074], for which the pIC50 in assay [1] (setting [3]) and in assay [2] (wild type RT) was over 7.30 in each case.
Consider `CCN1c2ncc(CCOc3ccc(-c4cnc(N)c(C)c4)cc3C)cc2C(=O)N(C)c2cccnc21` [Entry 1080], for which the pIC50 in assay [1] (setting [3]) and in assay [2] (wild type RT) was over 7.30 each time.
Take `CCN1c2ncc(CCOc3ccc(-c4cc[n+]([O-])c(C)c4)cc3C)cc2C(=O)N(C)c2cccnc21` [Entry 1086]: the pIC50 in assay [1] (setting [3]) and in assay [2] (wild type RT) was over 7.30 throughout.
Take `CCN1c2ncc(CCOc3ccc(-c4cc(F)c(O)c(F)c4)cc3C)cc2C(=O)N(C)c2cccnc21` [Entry 1103]: the pIC50 was 7.00 to 7.30 in assay [1] (setting [3]) and over 7.30 in assay [2] (wild type RT).
As for `CCN1c2ncc(CCOc3ccc(C(=O)NCc4cc[n+]([O-])cc4)cc3C)cc2C(=O)N(C)c2cccnc21` [Entry 3003], the results for the pIC50 in assay [1] and in assay [2] (wild type RT) were 7.00 to 7.30 and over 7.30, respectively.
Take `CCN1c2ncc(CCOc3ccc(-c4occc4C(=O)O)cc3)cc2C(=O)N(C)c2cccnc21` [Entry 1050]: in assay [2] (wild type RT), the pIC50 was under 7.00.
`CCN1c2ncc(CCOc3ccc(NS(C)(=O)=O)cc3C)cc2C(=O)N(C)c2cccnc21` [Entry 4005]: the pIC50 in assay [1] and in assay [2] (wild type RT) was over 7.30 in each case.
Regarding `CCN1c2ncc(CCOc3ccc(N(CC(=O)O)C(C)=O)cc3C)cc2C(=O)N(C)c2cccnc21` [Entry 4002], the pIC50 in assay [1] was under 7.00; in assay [2] (wild type RT), over 7.30.
For `CCN1c2ncc(CCOc3ccc(-c4ncccn4)cc3)cc2C(=O)N(C)c2cccnc21` [Entry 1061], the pIC50 was under 7.00 in assay [1] (setting [3]) and over 7.30 in assay [2] (wild type RT).
With `CCN1c2ncc(CCOc3ccc(-c4cc(Cl)c(C(=O)O)cc4F)cc3C)cc2C(=O)N(C)c2cccnc21` [Entry 1020], the pIC50 in assay [1] (setting [3]) and in assay [2] (wild type RT) was over 7.30 in each case.
Regarding `CCN1c2ncc(CCOc3ccc(NC(=O)c4ccc(Cl)nc4)cc3C)cc2C(=O)N(C)c2cccnc21` [Entry 3035], the pIC50 in assay [1] and in assay [2] (wild type RT) was over 7.30 in each case.
`CCN1c2ncc(CCOc3ccc(-c4ccc(CCC(=O)O)o4)cc3C)cc2C(=O)N(C)c2cccnc21` [Entry 1049]: the pIC50 in assay [1] (setting [3]) was under 7.00; in assay [2], over 7.30.
